Measured values from the Kinase Knowledgebase extract (Sharma et al. 2016).

Biological target: PIK3CG (human) (UniProt P48736)
Assay: Assessment of PIK3CG Kinase Activity

Sequence of PIK3CG (human) (P48736 whole entry, looked up): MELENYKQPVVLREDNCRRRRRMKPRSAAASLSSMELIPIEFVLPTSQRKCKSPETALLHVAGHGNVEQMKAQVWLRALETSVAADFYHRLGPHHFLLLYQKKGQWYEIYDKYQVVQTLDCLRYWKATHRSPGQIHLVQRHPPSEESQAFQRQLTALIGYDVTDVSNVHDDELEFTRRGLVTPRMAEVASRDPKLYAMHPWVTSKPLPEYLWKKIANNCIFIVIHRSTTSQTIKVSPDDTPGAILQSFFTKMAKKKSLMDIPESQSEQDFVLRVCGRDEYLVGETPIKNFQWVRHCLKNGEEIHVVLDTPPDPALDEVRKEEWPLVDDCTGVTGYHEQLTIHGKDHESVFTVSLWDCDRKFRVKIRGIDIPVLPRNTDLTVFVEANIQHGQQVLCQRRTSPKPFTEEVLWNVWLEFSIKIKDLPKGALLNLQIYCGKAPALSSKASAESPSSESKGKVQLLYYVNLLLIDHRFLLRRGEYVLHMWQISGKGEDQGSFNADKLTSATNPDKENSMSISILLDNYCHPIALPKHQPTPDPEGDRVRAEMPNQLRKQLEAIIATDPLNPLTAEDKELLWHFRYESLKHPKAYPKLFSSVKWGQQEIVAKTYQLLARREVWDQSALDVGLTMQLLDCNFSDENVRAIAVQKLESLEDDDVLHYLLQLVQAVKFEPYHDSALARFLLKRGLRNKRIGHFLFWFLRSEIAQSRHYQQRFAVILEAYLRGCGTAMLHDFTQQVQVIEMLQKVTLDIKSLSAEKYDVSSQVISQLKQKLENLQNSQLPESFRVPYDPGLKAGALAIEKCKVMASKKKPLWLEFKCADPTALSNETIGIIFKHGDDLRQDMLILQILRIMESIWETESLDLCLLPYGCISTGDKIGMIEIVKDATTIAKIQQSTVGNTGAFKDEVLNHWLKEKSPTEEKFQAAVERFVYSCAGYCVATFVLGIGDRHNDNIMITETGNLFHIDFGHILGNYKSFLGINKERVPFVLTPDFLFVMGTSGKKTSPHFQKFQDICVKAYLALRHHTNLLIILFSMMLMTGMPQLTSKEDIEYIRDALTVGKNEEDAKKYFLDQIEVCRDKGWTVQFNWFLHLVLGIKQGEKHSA

Compound	IC50 [nM]
COc1cc2c(OC3CCN(C(=O)OC(C)(C)C)CC3)c(C(=O)Nc3nn[nH]n3)sc2cc1F	16
COc1cc2c(SC3CCCCC3)c(C(=O)Nc3nnn[nH]3)sc2cc1F	12
COc1ccc2sc(C(=O)Nc3nnn[nH]3)c(SC(c3ccccc3)C(C)N(C)C(C)=O)c2c1F (configuration not stated)	20000
COc1ccc2c(SC3CCCCC3)c(C(=O)Nc3nnn[nH]3)sc2c1F	27
COc1cc2c(OCC3(C)CC3)c(C(=O)Nc3nn[nH]n3)sc2cc1F	14
COc1cc2c(Sc3ccc(Cl)cc3)c(C(=O)Nc3nnn[nH]3)sc2cc1F	45.5
COc1ccc2sc(C(=O)Nc3nnn[nH]3)c(Sc3cccc(C(F)(F)F)c3)c2c1F	11000
COc1ccc2sc(C(=O)Nc3nnn[nH]3)c(Sc3ccc(CC(=O)O)cc3)c2c1F	19400

Further compounds by falling IC50, results first:

IC50 [nM]	Compound
505	COc1ccc2sc(C(=O)Nc3nnn[nH]3)c(Sc3ccc(C4CCCCC4)cc3)c2c1F
35	COc1cc2c(O[C@@H]3CCC[C@@H](C)C3)c(C(=O)Nc3nn[nH]n3)sc2cc1F
24.5	COc1cc2c(Oc3ccccc3)c(C(=O)Nc3nn[nH]n3)sc2cc1F
3.8	COc1cc2c(O[C@@H]3CCC[C@H](C)C3)c(C(=O)Nc3nn[nH]n3)sc2cc1F
